# System: hemorrhoids (Goligher type I, II, III and IV)
# Test: Clinical test of rectally administered suppositories in volunteers with hemorrhoids (Goligher's classification)
# Format: in vivo
# Settings: adult human beings of both genders, 20 to 80 years old, daily dosage as in Table 1, average ± standard error, n=20
# Procedure: For such, various volunteers were randomly selected.
# In short, volunteers, aging from 20 to 80 years old, were tested and observed for 28 days by rectally administering suppositories of 2 g each, containing the active ingredients in the indicated proportion: methionine (170 mg/day), cysteine (20 mg/day) and phenylalanine (10 mg/day) each.
# The indicated values in the Table are average values in 20 experiments±standard errors (n=20).
SMILES,Bleeding inhibition after 72 h (%),Relapse after 5 years (%)
N[C@@H](CS)C(=O)O [L-cysteine],10 ± 1,80 ± 8
CSCC[C@H](N)C(=O)O [L-methionine],70 ± 7,15 ± 2
N[C@@H](Cc1ccccc1)C(=O)O [L-phenylalanine],2 ± 1,90 ± 9
